Our source for the IC50 values is patent publication US8084457B2, “Pharmaceutically active 4,6-disubstituted aminopyrimidine derivatives as modulators of protein kinases” (Lead Discovery Center GmbH, priority 2003, dated 2011).

Each structure is given as a SMILES string.

One assay has as its target T1, CDK2/CyclinA (Homo sapiens, UniProt P24941).
T1 construct: purchased Proqinase
As to the kind of experiment: Kinase assay determining CDK2/CyclinA activity. In kind it is biochemical. Conditions: read-out: CDK2 (activity range). The method, then:
Kinase Assays Determining CDK2/CyclinA and CDK5/p35 Activity:
Kinase assays were performed as described by the manufacturers recommendations (Proqinase for CDK2/CyclinA and Upsate for CDK5/p35).

For the next assay, the target named is T2, CDK9/Cyclin T1 (Homo sapiens, UniProt P50750).
T2 construct: made in house; host or cells: HEK293 cells, recombinant adenovirus
T2 sequence (P50750 whole entry): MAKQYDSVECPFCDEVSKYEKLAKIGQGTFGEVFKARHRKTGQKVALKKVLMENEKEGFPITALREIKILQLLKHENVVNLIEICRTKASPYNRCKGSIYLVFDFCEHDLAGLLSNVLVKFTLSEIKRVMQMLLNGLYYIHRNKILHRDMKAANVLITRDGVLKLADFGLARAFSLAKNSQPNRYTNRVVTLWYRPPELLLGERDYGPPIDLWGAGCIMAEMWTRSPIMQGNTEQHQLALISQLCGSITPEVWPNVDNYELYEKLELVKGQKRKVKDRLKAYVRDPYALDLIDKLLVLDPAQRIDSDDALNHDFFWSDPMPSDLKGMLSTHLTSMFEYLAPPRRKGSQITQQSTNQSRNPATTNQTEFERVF
T2 sequence (O60563 whole entry partner): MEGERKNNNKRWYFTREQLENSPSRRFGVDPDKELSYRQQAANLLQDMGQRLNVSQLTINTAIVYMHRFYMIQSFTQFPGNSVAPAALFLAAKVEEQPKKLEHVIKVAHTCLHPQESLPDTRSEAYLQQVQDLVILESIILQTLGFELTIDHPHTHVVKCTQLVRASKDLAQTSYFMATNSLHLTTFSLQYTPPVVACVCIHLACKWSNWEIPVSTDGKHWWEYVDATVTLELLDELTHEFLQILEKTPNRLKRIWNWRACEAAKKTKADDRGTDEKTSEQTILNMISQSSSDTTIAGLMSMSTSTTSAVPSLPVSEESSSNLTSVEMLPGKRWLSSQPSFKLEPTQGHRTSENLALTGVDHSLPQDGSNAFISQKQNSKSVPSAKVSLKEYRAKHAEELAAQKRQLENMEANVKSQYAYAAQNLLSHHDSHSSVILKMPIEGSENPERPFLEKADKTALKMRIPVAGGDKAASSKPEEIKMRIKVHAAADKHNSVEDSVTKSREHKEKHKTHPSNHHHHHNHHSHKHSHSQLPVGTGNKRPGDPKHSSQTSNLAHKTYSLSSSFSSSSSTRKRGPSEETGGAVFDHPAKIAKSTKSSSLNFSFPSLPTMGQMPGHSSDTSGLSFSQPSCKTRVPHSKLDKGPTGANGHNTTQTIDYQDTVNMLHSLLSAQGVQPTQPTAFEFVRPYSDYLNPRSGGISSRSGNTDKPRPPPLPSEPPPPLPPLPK
As to the kind of experiment: Kinase assay using CDK9/Cyclin T1. In kind it is biochemical. Conditions: read-out: CDK9 (activity range). The text has this: Cloning of CDK9 and Cyclin T1:
Both cDNA fragments were cloned by PCR into pDONR201 vectors using the gateway recombination system (Invitrogen) according to the manufacturer's recommendations. The fragments were subcloned into a gateway-adapted shuttle vector (pPM7) for production of recombinant adenovirus. All plasmids were verified by restriction digests and sequencing analysis.
Expression and Purification of CDK9/Cyclin T1 Proteins:
Expression and purification was in principle performed as described by Cotten et al. (M. Cotten et al., Nucleic acids research, 2003, 31(28), 128).
Kinase Assay Using CDK9/Cyclin T1:
Kinase assays were performed in principle as described by Cotten et al. (M. Cotten et al., Nucleic acids research, 2003, 31(28), 128).

Take `COc1ccccc1-c1cc(Nc2ccc(C(=O)N[C@@H]3CCCC[C@H]3O)cc2)ncn1` (racemic) [(135)]: the IC50 fell in the range of 1 to 10 µM on CDK2/CyclinA and 0.001 to 1 µM at CDK9/Cyclin T1.
With `COc1ccc(-c2cc(Nc3ccc(C(=O)N[C@@H]4CCCC[C@H]4N)cc3)ncn2)cc1` (racemic) [(161)], the IC50 was in the range of 1 to 10 µM on CDK2/CyclinA and 0.001 to 1 µM on CDK9/Cyclin T1.
As for `N[C@@H]1CCCC[C@H]1NC(=O)c1ccc(Nc2cc(-c3cccc(O)c3)ncn2)cc1` (racemic) [(194)], the IC50 on CDK9/Cyclin T1 was 1 to 10 µM.
Regarding `CS(=O)(=O)Nc1cccc(-c2cc(Nc3ccc(C(=O)N[C@@H]4CCCC[C@H]4N)cc3)ncn2)c1` (racemic) [(195)], the IC50 on CDK2/CyclinA was 1 to 10 µM; on CDK9/Cyclin T1 it was 0.001 to 1 µM.
On to `COC(=O)c1cccc(-c2cc(Nc3ccc(C(=O)N[C@@H]4CCCC[C@H]4N)cc3)ncn2)c1` (racemic) [(201)], for which the IC50 on CDK9/Cyclin T1 was in the range of 1 to 10 µM.
The same measure, in the same setting: in the case of `COc1ncc(-c2cc(Nc3ccc(C(=O)N[C@@H]4CCCC[C@H]4N)cc3)ncn2)cn1` (racemic) [(213)] it was 10 to 250 µM.
For the molecule `COc1ccc(-c2cc(Nc3ccc(NS(=O)(=O)c4ccc(C)cc4)cc3)ncn2)cc1` [(1)], the IC50 on CDK2/CyclinA is 1 to 10 µM; at CDK9/Cyclin T1, 10 to 250 µM.
In the same order, the values of `COc1cccc(-c2cc(Nc3ccc(NS(=O)(=O)c4ccc(C)cc4)cc3)ncn2)c1` [(2)] are 10 to 250 µM and 10 to 250 µM.
With `COc1ccc(-c2cc(Nc3ccc(C)c(NS(C)(=O)=O)c3)ncn2)cc1` [(3)], the IC50 was in the range of 0.001 to 1 µM at CDK2/CyclinA and 1 to 10 µM on CDK9/Cyclin T1.
For the molecule `Nc1ccc(C(=O)Nc2ccc(Nc3cc(-c4ccccc4OCc4ccccc4)ncn3)cc2)cc1` [(4)], the IC50 fell in the range of 1 to 10 µM on CDK2/CyclinA and 0.001 to 1 µM on CDK9/Cyclin T1.
In the same order, the values of `COc1ccccc1-c1cc(Nc2ccc(NS(=O)(=O)c3ccc(C)cc3)cc2)ncn1` [(5)] are 0.001 to 1 µM and 0.001 to 1 µM.
The like results for `COc1ccc(-c2cc(Nc3ccc(NC(=O)c4ccc(N)cc4)cc3)ncn2)cc1` [(6)] were, in that order, 1 to 10 µM and 0.001 to 1 µM.
The like results for `c1ccc(COc2ccccc2-c2cc(NCCc3ccncc3)ncn2)cc1` [(7)] were, in that order, 1 to 10 µM and 0.001 to 1 µM.
For `COc1ccccc1-c1cc(Nc2ccc(NC(=O)c3ccc(N)cc3)cc2)ncn1` [(8)], the IC50 lay within 1 to 10 µM on CDK2/CyclinA and 0.001 to 1 µM at CDK9/Cyclin T1.
In the same order, the values of `Cc1ccc(S(=O)(=O)Nc2ccc(Nc3cc(-c4ccc(O)cc4)ncn3)cc2)cc1` [(11)] are 0.001 to 1 µM and 0.001 to 1 µM.
In the same order, the values of `Cc1ccc(Nc2cc(-c3cccc(N)c3)ncn2)cc1NS(C)(=O)=O` [(12)] are 0.001 to 1 µM and 0.001 to 1 µM.
The like results for `Nc1cccc(-c2cc(NCCc3ccncc3)ncn2)c1` [(13)] were, in that order, 1 to 10 µM and 1 to 10 µM.
As to `COC(=O)c1ccc(Nc2cc(-c3ccccc3OC)ncn2)cc1` [(15)], the IC50 on CDK2/CyclinA and at CDK9/Cyclin T1 was 0.001 to 1 µM in each case.
Consider `CC(C)(C)C(=O)Nc1ccc(Nc2cc(Cl)ncn2)cc1` [(72)], for which the IC50 at CDK2/CyclinA was 10 to 250 µM.
As for `CC(C)(C)C(=O)Nc1ccc(Nc2cc(-c3cccnc3)ncn2)cc1` [(73)], the IC50 at CDK2/CyclinA is 10 to 250 µM.
For the molecule `CC(C)(C)C(=O)Nc1ccc(Nc2cc(-c3cccc(C(=O)O)c3)ncn2)cc1` [(75)], the IC50 at CDK9/Cyclin T1 lay in the range of 10 to 250 µM.
Regarding `CN1CCN(c2cc(Nc3ccc(NC(=O)C(C)(C)C)cc3)ncn2)CC1` [(78)], the IC50 on CDK2/CyclinA lay within 10 to 250 µM.
On the same count and under the same terms, to `COc1ccccc1-c1cc(Nc2ccc(NC(=O)Nc3ccc4c(c3)OCO4)cc2)ncn1` [(111)] belongs 10 to 250 µM.
Regarding `COc1ccccc1-c1cc(Nc2ccc(NC(=O)c3cc4ccccc4oc3=O)cc2)ncn1` [(129)], the IC50 at CDK9/Cyclin T1 is 10 to 250 µM.
Still for that read-out and setting: in the case of `CC(C)(C)C(=O)Nc1ccc(Nc2cc(-c3ccccc3-c3ccccc3)ncn2)cc1` [(132)] it was 10 to 250 µM; in that of `COc1ccccc1-c1cc(Nc2ccc(NC(=O)c3n[nH]c4ccccc34)cc2)ncn1` [(141)], 1 to 10 µM.
Same read-out and setting: to `COc1ccccc1-c1ncnc(Nc2ccc(NC(=O)c3ccc(N)cc3)cc2)c1C` [(149)] belongs 10 to 250 µM.
Same read-out and setting: in the case of `CCCS(=O)(=O)Nc1ccc(Nc2ncnc(-c3ccccc3OC)c2C)cc1` [(160)] it was 10 to 250 µM.
`Cc1ccc(Nc2cc(-c3ccccc3CO)ncn2)cc1NS(C)(=O)=O` [(166)]: on CDK9/Cyclin T1, the IC50 was 1 to 10 µM.
The same measure, in the same setting: in the case of `COc1ccc(-c2cc(Nc3ccc(NC(=O)[C@@H]4CCCCN4)cc3)ncn2)cc1` [(167)] it was 1 to 10 µM.
Regarding `CN(C)c1cccc(-c2cc(Nc3ccc(NC(=O)[C@@H]4CCCCN4)cc3)ncn2)c1` [(169)], the IC50 at CDK9/Cyclin T1 lay within 1 to 10 µM.
On to `O=C(Nc1ccc(Nc2cc(-c3ccccc3CO)ncn2)cc1)[C@@H]1CCCCN1` [(170)], for which the IC50 on CDK9/Cyclin T1 is 1 to 10 µM.
Still for that read-out and setting: to `COc1ccc(-c2cc(Nc3ccc(NC(=O)[C@@H]4CCCCN4)cc3)ncn2)cn1` [(172)] belongs 1 to 10 µM; to `O=C(Nc1ccc(Nc2cc(-c3ccc(OCc4ccccc4)cc3)ncn2)cc1)[C@@H]1CCCCN1` [(173)], 10 to 250 µM; to `Cc1ccc(Nc2cc(-c3ccc(CO)cc3)ncn2)cc1NS(C)(=O)=O` [(175)], 1 to 10 µM.
With `CC(=O)Nc1ccc(-c2cc(Nc3ccc(NC(=O)[C@@H]4CCCCN4)cc3)ncn2)cc1` [(177)], on CDK9/Cyclin T1, the IC50 was 1 to 10 µM.
On the same count and under the same terms, to `CS(=O)(=O)Nc1cccc(-c2cc(Nc3ccc(NC(=O)[C@@H]4CCCCN4)cc3)ncn2)c1` [(178)] belongs 0.001 to 1 µM; to `CC(=O)c1cccc(-c2cc(Nc3ccc(NC(=O)[C@@H]4CCCCN4)cc3)ncn2)c1` [(179)], 10 to 250 µM; to `O=C(NC1CCCC1)c1ccc(-c2cc(Nc3ccc(NC(=O)[C@@H]4CCCCN4)cc3)ncn2)cc1` [(180)], 1 to 10 µM.
Take `CC(=O)c1ccc(-c2cc(Nc3ccc(NC(=O)[C@@H]4CCCCN4)cc3)ncn2)s1` [(191)]: the IC50 on CDK9/Cyclin T1 lay within 1 to 10 µM.
On the same count and under the same terms, in the case of `O=C(Nc1ccc(Nc2cc(-c3cccc(CO)c3)ncn2)cc1)[C@@H]1CCCCN1` [(193)] it was 1 to 10 µM.
The same measure, in the same setting: to `COCc1ccccc1-c1cc(Nc2ccc(C)c(NS(C)(=O)=O)c2)ncn1` [(197)] belongs 1 to 10 µM.
Same read-out and setting: to `COc1ccc(-c2ncnc(Nc3ccc(NC(=O)c4ccc(N)cc4)cc3)c2C)cc1` [(200)] belongs 10 to 250 µM.
Regarding `COCc1cccc(-c2cc(Nc3ccc(NC(=O)[C@@H]4CCCCN4)cc3)ncn2)c1` [(203)], the IC50 at CDK9/Cyclin T1 lay in the range of 1 to 10 µM.
Still for that read-out and setting: in the case of `COc1ccccc1-c1cc(Nc2ccc(N)cc2)nc(C)n1` [(204)] it was 10 to 250 µM; in that of `COc1ccc(-c2cc(Nc3ccc(N)cc3)nc(C)n2)cc1` [(205)], 10 to 250 µM; in that of `Nc1cccc(-c2cc(Nc3ccc(C(=O)NC4CCCCC4N)cc3)ncn2)c1` (centres unmarked) [(206)], 1 to 10 µM.
Consider `CC(=O)Nc1cccc(-c2cc(Nc3ccc(C(=O)NC4CCCCC4N)cc3)ncn2)c1` (centres unmarked) [(207)], for which the IC50 at CDK9/Cyclin T1 was 1 to 10 µM.
Still for that read-out and setting: to `NC1CCCCC1NC(=O)c1ccc(Nc2cc(-c3ccc(OCc4ccccc4)cc3)ncn2)cc1` (centres unmarked) [(208)] belongs 10 to 250 µM; to `N#Cc1cccc(-c2cc(Nc3ccc(C(=O)NC4CCCCC4N)cc3)ncn2)c1` (centres unmarked) [(209)], 1 to 10 µM.
On the same count and under the same terms, to `COCc1ccccc1-c1cc(Nc2ccc(C(=O)NC3CCCCC3N)cc2)ncn1` (centres unmarked) [(210)] belongs 1 to 10 µM; to `CN(C)Cc1cccc(-c2cc(Nc3ccc(NC(=O)[C@@H]4CCCCN4)cc3)ncn2)c1` [(211)], 1 to 10 µM.
Regarding `NC1CCCCC1NC(=O)c1ccc(Nc2cc(-c3cnc4ccccc4c3)ncn2)cc1` (centres unmarked) [(212)], on CDK9/Cyclin T1, the IC50 was in the range of 10 to 250 µM.
